These results are taken from patent US6608086B2, “Dihydropyridines and new uses thereof” (Synaptic Pharmaceutical Corporation, priority 1993, dated 2003).

The target of data set [1] is T1, α1A Human Adrenergic Receptor (Homo sapiens, UniProt P25100).
T1 construct: The entire coding region of α1A (1719 bp); expressed in transfected cells
T1 sequence (P25100 1-572): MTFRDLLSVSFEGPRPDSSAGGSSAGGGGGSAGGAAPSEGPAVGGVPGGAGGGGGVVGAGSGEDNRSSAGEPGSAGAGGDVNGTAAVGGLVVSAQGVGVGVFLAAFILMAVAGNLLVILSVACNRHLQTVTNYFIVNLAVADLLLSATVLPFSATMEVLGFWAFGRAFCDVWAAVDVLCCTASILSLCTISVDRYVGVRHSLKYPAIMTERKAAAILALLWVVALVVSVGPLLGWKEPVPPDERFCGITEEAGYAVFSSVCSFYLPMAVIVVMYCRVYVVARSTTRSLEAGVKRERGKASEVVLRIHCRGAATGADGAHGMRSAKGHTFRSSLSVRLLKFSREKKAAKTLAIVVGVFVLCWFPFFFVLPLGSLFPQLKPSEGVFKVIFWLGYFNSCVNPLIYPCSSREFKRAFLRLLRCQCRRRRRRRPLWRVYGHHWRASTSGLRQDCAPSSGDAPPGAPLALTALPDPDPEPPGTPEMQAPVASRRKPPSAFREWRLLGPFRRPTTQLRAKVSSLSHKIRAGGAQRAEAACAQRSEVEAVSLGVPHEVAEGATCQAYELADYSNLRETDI
In words: Radioligand binding, [3H]prazosin, cloned human α1A adrenergic receptor. In a few lines:
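Competition binding used membrane preparations of transfected LM(tk−) cells and the α1 antagonist [3H]prazosin at 0.5 nM, incubated 20 min at 37° C in Tris-HCl buffer, pH 7.5.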

The target of data set [2] is T2, α1B Human Adrenergic Receptor (Homo sapiens, UniProt P35368).
T2 construct: The entire coding region of α1B (1563 bp); expressed in transfected cells
T2 sequence (P35368 1-520): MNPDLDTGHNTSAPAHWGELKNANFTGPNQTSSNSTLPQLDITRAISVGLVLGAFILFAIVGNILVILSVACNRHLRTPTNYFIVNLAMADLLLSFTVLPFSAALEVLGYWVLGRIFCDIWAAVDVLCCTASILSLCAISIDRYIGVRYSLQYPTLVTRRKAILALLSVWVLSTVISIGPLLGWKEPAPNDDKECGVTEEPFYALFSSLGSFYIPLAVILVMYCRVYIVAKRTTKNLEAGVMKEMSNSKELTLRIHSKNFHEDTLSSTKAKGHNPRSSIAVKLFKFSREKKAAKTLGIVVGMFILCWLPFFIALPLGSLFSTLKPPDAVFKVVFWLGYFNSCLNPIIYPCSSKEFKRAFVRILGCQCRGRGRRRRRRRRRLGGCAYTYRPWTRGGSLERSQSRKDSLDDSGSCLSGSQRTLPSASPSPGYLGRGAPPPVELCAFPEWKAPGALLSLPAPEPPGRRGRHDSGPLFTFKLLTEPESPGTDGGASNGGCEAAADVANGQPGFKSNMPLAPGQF
Description: Radioligand binding, [3H]prazosin, cloned human α1B adrenergic receptor. The conditions noted are these: cloned human receptor, LM(tk-) cell membranes, mean, read-out: PKi alpha-1 1b (converted). In a few lines: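 Membranes from stably transfected LM(tk−) cells, resuspended in 50 mM Tris-HCl, 1 mM MgCl2, 0.1% ascorbic acid, pH 7.5, were incubated with 0.5 nM [3H]prazosin for 20 min at 37° C. Nonspecific binding defined with 10 μM phentolamine; bound ligand separated by GF/B filtration.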

Data set [3] concerns the target T3, α1C Human Adrenergic Receptor (Homo sapiens, UniProt P35348).
T3 construct: The entire coding region of α1C (1401 bp); expressed in transfected cells
T3 sequence (P35348 1-466): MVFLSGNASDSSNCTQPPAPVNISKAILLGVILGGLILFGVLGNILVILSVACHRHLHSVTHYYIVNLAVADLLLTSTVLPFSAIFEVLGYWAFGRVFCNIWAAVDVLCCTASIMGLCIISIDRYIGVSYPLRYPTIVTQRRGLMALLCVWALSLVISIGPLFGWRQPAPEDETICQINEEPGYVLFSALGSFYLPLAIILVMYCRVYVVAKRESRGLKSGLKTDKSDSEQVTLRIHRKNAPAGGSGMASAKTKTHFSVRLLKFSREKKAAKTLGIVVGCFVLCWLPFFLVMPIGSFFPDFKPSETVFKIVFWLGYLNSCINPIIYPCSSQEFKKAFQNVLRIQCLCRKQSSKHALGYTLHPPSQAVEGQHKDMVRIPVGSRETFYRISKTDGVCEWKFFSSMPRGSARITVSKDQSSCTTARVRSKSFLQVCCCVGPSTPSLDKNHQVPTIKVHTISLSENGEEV
In words: Radioligand binding, [3H]prazosin, cloned human α1C adrenergic receptor. The settings on record: cloned human receptor, LM(tk-) cell membranes, mean, read-out: PKi alpha-1 1c (converted). In a few lines:
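Membranes from LM(tk−) cells stably expressing the cloned human α1C receptor were incubated with 0.5 nM [3H]prazosin at 37° C. for 20 min in 50 mM Tris-HCl, 1 mM MgCl2, 0.1% ascorbic acid, pH 7.5. Nonspecific binding was defined with 10 μM phentolamine, and bound ligand was separated by GF/B filtration.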

Another data set has as its target T4, L-type calcium channel (Rattus norvegicus, UniProt P22002).
T4 construct: membrane fragments of rat cardiac muscle; from tissue; host or cells: rat cardiac muscle membranes
In words: Competition binding of [3H]nitrendipine to membrane fragments of rat cardiac muscle. As for the experimental part: (§1) The protocols for these experiments are given below.
Determination of the Activity of al Antagonists at Calcium Channels
Briefly, the tissue was minced and homogenized in 50 mM Tris-HCl (pH 7.4) containing 0.1 mM phenylmethylsulfonyl fluoride. The homogenates were centrifuged at 1000 g for 15 minutes, the resulting supernatant was centrifuged at 45,000 g for 15 minutes. The 45,000 g pellet was suspended in buffer and centrifuged a second time. Aliquots of membrane protein were incubated for 30 minutes at 37° C. in the presence of [3H]nitrendipine (1 nM), and nonspecific binding was determined in the presence of 10 μM nifedipine. The bound radioligand was separated by filtration through GF/B filters using a cell harvester.

A further data set has as its target T5, α2A receptor (Homo sapiens, UniProt P08913).
T5 construct: host or cells: LM(tk-) cells, line L-α2A
T5 sequence (P08913 1-465): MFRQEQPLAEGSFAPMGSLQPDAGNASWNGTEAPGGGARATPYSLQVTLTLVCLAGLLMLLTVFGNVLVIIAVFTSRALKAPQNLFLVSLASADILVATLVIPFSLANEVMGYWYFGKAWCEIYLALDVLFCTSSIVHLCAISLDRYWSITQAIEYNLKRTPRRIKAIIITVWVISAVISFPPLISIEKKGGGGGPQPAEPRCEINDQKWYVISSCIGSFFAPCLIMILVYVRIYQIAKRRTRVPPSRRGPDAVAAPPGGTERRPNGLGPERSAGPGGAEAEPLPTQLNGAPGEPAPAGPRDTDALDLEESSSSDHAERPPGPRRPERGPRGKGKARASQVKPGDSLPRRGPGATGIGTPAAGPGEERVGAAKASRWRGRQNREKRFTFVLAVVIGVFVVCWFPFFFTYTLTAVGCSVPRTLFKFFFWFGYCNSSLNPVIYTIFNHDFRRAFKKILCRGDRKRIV
In words: Competition binding, [3H]rauwolscine, human α2A receptor. The conditions noted are these: [3H]rauwolscine, human receptor, LM(tk-) cell lysates; mean; read-out: PKi alpha-2 2a (converted).
Text: as §1
(§2) α2 Human Adrenergic Receptors:
(§3) To determine the potency of […], antagonists at the α2 receptors, LM(tk−) cell lines stably transfected with the genes encoding the α2A, α2B, and α2C receptors were used. The cell line expressing the α2A receptor is designated L-α2A, and was deposited on Nov. […] The cell line expressing the α2B receptor is designated L-NGC-α2B, and was deposited on Oct. […] The cell line expressing the α2C receptor is designated L-α2C, and was deposited on Nov. […] Cell lysates were prepared as described above (see Radioligand Binding Assays), and suspended in 25 mM glycylglycine buffer (pH 7.6 at room temperature). Equilibrium competition binding assay were performed using [3H]rauwolscine (0.5 nM), and nonspecific binding was determined by incubation with 10 μM phentolamine. The bound radioligand was separated by filtration through GF/B filters using a cell harvester.

For a further data set, the target named is T6, α2B receptor (Homo sapiens, UniProt P18089).
T6 construct: host or cells: LM(tk-) cells, line L-NGC-α2B
T6 sequence (P18089 1-450): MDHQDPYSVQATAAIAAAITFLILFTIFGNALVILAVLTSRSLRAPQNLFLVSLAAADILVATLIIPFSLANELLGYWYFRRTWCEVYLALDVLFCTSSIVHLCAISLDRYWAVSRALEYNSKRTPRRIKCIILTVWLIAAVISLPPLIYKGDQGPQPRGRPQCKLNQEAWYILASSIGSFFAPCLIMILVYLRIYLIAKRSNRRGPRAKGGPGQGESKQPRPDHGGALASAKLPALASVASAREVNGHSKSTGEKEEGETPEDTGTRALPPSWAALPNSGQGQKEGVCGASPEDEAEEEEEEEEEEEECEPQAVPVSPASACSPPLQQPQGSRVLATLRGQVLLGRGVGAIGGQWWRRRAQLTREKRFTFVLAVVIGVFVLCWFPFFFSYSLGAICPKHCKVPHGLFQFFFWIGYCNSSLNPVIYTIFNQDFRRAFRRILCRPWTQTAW
In words: Competition binding, [3H]rauwolscine, human α2B receptor. The conditions noted are these: [3H]rauwolscine, human receptor, LM(tk-) cell lysates; mean; read-out: PKi alpha-2 2b (converted).
Text: as §1, §2, §3

For the next data set, the target named is T7, α2C receptor (Homo sapiens, UniProt P18825).
T7 construct: host or cells: LM(tk-) cells, line L-α2C
T7 sequence (P18825 1-462): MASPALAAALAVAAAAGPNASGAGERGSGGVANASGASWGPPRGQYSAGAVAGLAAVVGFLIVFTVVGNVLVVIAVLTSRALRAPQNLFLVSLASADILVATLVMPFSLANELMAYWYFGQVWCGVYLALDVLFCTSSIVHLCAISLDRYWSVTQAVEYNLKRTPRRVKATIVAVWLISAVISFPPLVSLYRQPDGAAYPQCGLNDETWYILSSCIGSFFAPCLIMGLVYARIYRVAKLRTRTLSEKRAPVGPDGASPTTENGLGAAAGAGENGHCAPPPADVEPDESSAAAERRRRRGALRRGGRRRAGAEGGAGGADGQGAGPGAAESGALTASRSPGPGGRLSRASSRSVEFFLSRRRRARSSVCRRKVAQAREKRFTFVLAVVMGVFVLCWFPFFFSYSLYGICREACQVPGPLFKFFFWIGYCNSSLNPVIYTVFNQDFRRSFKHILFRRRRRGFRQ
In words: Competition binding, [3H]rauwolscine, human α2C receptor. The conditions noted are these: [3H]rauwolscine, human receptor, LM(tk-) cell lysates; mean; read-out: PKi alpha-2 2c (converted).
Text: as §1, §2, §3

Where [4] appears, read: [3H]prazosin, cloned human receptor, LM(tk-) cell membranes, mean, read-out: PKi alpha-1 1a (converted).

The structures appear in SMILES notation. Where two headings read alike, the source gives them in different places.

As usually defined, the melting point is the temperature of the solid-liquid transition.

T4 sequence (P22002 whole entry, other chains not shown, the tested form may be a part): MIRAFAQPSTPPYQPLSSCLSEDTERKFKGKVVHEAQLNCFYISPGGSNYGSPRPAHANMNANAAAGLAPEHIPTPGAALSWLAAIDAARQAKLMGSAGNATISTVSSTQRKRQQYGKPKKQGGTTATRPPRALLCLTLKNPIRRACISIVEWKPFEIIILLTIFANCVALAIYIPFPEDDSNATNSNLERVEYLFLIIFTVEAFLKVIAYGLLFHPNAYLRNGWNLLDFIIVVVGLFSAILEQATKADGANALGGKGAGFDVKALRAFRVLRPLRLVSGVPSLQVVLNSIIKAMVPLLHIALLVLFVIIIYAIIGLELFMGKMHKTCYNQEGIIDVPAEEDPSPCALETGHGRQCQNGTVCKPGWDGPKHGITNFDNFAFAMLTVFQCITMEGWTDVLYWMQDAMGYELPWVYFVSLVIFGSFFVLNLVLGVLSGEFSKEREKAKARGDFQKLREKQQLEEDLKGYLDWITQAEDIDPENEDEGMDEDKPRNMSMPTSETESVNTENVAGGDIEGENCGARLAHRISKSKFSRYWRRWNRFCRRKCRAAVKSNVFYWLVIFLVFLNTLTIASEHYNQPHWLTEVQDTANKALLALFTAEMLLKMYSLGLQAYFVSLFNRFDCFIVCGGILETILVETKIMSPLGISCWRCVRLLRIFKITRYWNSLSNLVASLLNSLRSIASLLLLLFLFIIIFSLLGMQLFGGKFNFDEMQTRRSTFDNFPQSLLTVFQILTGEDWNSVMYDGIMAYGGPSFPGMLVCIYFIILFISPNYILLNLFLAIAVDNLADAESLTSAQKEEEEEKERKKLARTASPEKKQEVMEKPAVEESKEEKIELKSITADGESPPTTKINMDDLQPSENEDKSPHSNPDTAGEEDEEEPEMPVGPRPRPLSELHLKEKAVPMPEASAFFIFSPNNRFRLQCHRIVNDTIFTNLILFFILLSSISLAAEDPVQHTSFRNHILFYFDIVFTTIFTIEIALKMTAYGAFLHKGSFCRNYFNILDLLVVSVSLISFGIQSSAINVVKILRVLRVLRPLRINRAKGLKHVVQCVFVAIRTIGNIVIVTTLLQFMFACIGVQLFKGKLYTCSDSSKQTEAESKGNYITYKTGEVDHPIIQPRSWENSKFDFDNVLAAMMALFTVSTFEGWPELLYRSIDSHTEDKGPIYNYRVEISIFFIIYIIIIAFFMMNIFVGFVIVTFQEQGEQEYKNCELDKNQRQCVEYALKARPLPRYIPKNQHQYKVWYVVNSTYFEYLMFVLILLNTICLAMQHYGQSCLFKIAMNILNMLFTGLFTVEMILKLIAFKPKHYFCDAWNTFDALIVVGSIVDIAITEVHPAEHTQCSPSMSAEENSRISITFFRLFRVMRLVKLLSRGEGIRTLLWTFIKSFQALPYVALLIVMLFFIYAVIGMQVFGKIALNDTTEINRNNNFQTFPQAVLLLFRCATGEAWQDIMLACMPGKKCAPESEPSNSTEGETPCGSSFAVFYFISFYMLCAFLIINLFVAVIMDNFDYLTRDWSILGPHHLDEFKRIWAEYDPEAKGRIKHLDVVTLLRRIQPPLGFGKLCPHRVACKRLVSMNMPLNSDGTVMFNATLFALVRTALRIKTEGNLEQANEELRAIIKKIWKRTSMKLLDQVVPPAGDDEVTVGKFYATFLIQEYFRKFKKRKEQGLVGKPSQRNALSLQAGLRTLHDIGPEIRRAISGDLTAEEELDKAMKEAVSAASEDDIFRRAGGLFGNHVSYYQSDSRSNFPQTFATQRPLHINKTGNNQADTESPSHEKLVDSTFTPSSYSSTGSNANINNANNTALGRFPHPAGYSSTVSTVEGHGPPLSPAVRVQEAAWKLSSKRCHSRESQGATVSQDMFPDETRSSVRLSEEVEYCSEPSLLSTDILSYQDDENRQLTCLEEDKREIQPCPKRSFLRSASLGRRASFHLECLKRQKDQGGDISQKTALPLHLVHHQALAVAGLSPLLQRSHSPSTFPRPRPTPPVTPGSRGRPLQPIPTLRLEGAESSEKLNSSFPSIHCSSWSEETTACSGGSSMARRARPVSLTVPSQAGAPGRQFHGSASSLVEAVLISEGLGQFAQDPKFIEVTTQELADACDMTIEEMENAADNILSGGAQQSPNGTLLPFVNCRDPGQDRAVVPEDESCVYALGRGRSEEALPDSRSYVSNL
T4 sequence (P54290 25-944 partner limits assumed, other chains not shown): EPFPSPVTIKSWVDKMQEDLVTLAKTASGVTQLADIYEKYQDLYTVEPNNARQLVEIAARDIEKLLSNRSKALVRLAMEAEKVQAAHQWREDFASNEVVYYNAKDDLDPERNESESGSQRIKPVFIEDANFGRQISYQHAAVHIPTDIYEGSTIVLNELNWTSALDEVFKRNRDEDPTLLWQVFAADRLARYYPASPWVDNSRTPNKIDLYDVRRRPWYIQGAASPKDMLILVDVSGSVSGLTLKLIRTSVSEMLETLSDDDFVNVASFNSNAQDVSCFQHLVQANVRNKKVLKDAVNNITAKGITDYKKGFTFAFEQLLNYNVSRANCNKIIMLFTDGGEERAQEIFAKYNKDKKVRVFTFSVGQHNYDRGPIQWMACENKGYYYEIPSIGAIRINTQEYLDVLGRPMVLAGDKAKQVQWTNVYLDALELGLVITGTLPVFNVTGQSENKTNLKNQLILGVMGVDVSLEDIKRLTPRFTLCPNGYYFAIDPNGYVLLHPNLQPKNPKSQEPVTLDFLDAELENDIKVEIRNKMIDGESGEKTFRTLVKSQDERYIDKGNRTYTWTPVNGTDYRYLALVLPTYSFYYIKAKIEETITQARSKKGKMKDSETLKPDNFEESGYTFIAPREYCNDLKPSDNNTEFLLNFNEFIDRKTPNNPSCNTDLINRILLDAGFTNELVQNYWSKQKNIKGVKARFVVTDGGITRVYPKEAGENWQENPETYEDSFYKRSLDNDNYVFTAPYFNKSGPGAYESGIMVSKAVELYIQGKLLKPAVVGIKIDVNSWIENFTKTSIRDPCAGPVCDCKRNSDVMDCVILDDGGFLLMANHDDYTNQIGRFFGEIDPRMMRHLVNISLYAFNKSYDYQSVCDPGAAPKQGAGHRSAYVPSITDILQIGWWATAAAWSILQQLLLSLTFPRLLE
T4 sequence (P54290 945-1091 partner limits assumed, other chains not shown): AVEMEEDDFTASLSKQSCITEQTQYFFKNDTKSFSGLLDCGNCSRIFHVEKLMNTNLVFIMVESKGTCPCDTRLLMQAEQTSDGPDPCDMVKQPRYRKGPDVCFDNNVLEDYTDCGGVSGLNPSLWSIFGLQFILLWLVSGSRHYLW

Turning to `CC1=C(C(N)=O)C(c2ccc([N+](=O)[O-])cc2)C(C(=O)NCCCN2CCC(c3ccccc3)(c3ccccc3)CC2)=C(COCCN)N1` (stereo not shown) [Example 217, 2-((2-Aminoethyl)oxy)methyl-5-carboxamido-1,4-dihydro-6-methyl-3-(N-(3-(4,4-diphenylpiperidin-1-yl)propyl))carboxamido-4-(4-nitro)phenylpyridine], the Ki in data set [1] (PKi alpha-1 1a) is 776 nM; in data set [2], 447 nM; in data set [3] it was 2.45 nM; on L-type calcium channel (PKi Ca) it was 8130 nM.

`COC(=O)C1(c2ccccc2)CCN(CCCNC(=O)C2=C(C)NC(C)=C(C(=O)OCCO)C2c2ccc([N+](=O)[O-])cc2)CC1` (stereo not shown) [Example 207, 1,4-Dihydro-2,6-dimethyl-5-(2-hydroxyethoxycarbonyl)-3-{N-[3-(4-methoxycarbonyl-4-phenylpiperidin-1-yl)propyl]}carboxamido-4-(4-nitrophenyl)pyridine] showed a melting point of 90 to 91 °C. The Ki in data set [1] (setting [4]) is 1860 nM. Besides, on α2A receptor, the Ki was 724 nM. The Ki on α2B receptor was 955 nM. Besides, the Ki on α2C receptor was 1780 nM.

With `CCC1=C(C(N)=O)C(c2ccc([N+](=O)[O-])cc2)C(C(=O)NCCCN2CCC(c3ccccc3)(c3ccccc3)CC2)=C(COCCN)N1` (racemic) [(±)-144, 2-((2-Aminoethyl)oxy)methyl-5-carboxamido-6-ethyl-1,4-dihydro-4-(4-nitro)phenyl-3-(N-(3-(4,4-diphenylpiperidin-1-yl)propyl))carboxamidopyridine], on L-type calcium channel ([3H]nitrendipine, rat cardiac muscle membrane fragments, L-type calcium channel, read-out: pKi Ca (converted)), the Ki was 12600 nM.

As for `CCOC(=O)C1=C(C)NC(C)=C(C(=O)NCCCN2CCC(C(=O)OC)(c3ccccc3)CC2)C1c1ccc([N+](=O)[O-])cc1` (stereo not shown) [Example 208], the melting point fell in the range of 73 to 75 °C. Further, in data set [1] (setting [4]), the Ki is 741 nM. Besides, at α2A receptor, the Ki was 2690 nM. The Ki at α2B receptor was 1260 nM. Besides, the Ki on α2C receptor is 977 nM.

In turn, `COC(=O)C1(c2ccccc2)CCN(CCCNC(=O)C2=C(C)NC(C)=C(C(=O)O)C2c2ccc([N+](=O)[O-])cc2)CC1` (stereo not shown) [Example 204, 1,4-Dihydro-2,6-dimethyl-3-{N-[3-(4-methoxycarbonyl-4-phenylpiperidin-1-yl)propyl]}carboxamido-4-(4-nitrophenyl)pyridine-5-carboxylic acid] returned a melting point of 139 to 141 °C. Also, on α2A receptor, the Ki is 1170 nM. Moreover, the Ki on α2B receptor is 1700 nM. In addition, the Ki on α2C receptor is 1230 nM.
